Several values for one entry are separate records, joined by “and”; a condition that tells them apart may be missing. Identical values can stand only once. Counter-ions that a name gives are not always drawn.
Legend:
BBM enzymes APase = molecular target: T1, BBM enzymes APase (Rattus norvegicus, UniProt P08289); test: Effect on BBM enzyme APase (data not shown); format: biochemical
T1 construct: from tissue; host or cells: renal brush border membrane vesicles (rat inferred)
T1 sequence (P08289 18-502 limits assumed): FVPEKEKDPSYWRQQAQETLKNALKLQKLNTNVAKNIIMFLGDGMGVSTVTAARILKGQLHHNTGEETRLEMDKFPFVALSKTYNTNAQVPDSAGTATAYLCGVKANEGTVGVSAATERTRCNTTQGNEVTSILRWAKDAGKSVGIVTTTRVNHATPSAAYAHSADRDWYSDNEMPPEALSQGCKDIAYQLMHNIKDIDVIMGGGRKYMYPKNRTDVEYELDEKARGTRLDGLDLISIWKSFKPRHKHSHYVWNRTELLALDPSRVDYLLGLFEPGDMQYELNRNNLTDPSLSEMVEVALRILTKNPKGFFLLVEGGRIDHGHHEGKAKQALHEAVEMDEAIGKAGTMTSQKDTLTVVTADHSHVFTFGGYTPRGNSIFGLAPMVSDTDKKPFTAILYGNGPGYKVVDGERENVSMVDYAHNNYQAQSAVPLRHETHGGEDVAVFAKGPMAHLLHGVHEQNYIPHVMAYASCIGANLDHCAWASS

Na-Pi cotransporter = molecular target: T2, Na-Pi cotransporter (Rattus norvegicus, UniProt Q06496); test: Reversibility of TPFA inhibition: 32Pi uptake of BBMV after preincubation and washout; format: biochemical
T2 construct: from tissue; host or cells: rat renal cortex, brush border membrane vesicles
T2 sequence (Q06496 1-637): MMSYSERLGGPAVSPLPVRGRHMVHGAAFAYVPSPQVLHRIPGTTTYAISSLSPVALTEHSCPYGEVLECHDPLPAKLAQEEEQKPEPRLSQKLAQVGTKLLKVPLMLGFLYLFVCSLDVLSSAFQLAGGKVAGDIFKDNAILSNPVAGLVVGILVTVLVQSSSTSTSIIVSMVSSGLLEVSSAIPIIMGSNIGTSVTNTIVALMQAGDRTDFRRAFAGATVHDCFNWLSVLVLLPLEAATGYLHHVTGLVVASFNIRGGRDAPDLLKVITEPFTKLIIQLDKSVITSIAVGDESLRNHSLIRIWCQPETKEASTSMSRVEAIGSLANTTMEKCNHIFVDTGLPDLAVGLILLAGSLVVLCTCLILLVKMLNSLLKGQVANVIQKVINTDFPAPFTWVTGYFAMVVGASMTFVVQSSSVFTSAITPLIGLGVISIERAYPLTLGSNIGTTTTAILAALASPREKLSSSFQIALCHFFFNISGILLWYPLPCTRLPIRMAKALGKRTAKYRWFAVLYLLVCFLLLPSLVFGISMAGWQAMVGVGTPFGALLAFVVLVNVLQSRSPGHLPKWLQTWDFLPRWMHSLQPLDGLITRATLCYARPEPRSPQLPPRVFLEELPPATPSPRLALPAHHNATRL
Protocol: The reversibility of the inhibition of ^32 Pi transport across BBMV by TPFA was explored using the following protocol. […] The suspensions of BBMV were incubated for 10 min at room temperature. At the end of incubation period, incubation mixtures were diluted with 10 ml of ice-cold MTH-medium, resuspended and centrifuged at 35,000×g for 20 min. The supernatant was discarded and BBMV pellet was suspended in MTH-medium and then assayed for Na^+ -gradient-dependent ^32 Pi uptake.

[1] = tested on: L-[^3 H]-proline uptake by BBMV; test: Na+-gradient-dependent uptake of L-[3H]-proline by renal BBMV; format: biochemical, rat; details: 1 mM TPFA; mean ± SEM, n=4; control 43±3
Protocol: The brush border membrane vesicles (BBMV) were prepared from renal cortical tissue of adult male Sprague-Dawley rats of an average body weight of about 220 grams. Rats were fed ad libitum standard rat chow containing 0.7% Pi and had free access to distilled water. Rats were sacrificed under anesthesia and dissected renal cortical tissue was used for preparation of BBMV fraction by the divalent cation-precipitation procedure, employed and described in detail in J. Clin. Invest., 67, 1347 (1981) and J. Biol. Chem., 258, 5695 (1983), with the following modifications: (a) MgCl2 instead of CaCl2 was added to crude homogenate (final concentration 10 mM MgCl2) to precipitate membranes other than BBMV; (b) in the final step, BBMV were washed and equilibrated in a medium of pH=7.5, instead of pH=8.5. The enrichment and specific activities of typical BBM enzymes alkaline phosphatase (APases), γ-glutyamyl transferase (γ-GTT), leucineaminopeptidase (LAP) and maltase with use of these modifications were similar as in BBMV fractions prepared in our previous studies. […]
The BBMV uptake of ^32 Pi, D-[^3 H]-glucose, L-[^3 H]-proline and ^22 Na^+ was measured by means of a rapid filtration technique, as described in J. Clin. Invest., 67, 1347 (1981) and Am. […]

O=C(O)P(=O)(O)O [TPFA, Phosphonoformic acid, trisodium salt hexahydrate] was tested, and the “effect on BBM enzyme APase” value (BBM enzymes APase) was “without inhibitory effect”, the “32Pi uptake 120 min, TPFA-preincubated” value (Na-Pi cotransporter; BBMV preincubated with 5 mM TPFA 10 min, diluted 1:10, washed, Experiments 1 and 2) was 326 ± 5 pmoles/mg protein and 293 ± 3 pmoles/mg protein and the “32Pi uptake 20 sec, TPFA-preincubated” value (Na-Pi cotransporter; BBMV preincubated with 5 mM TPFA 10 min, diluted 1:10, washed, Experiments 1 and 2, mean ± SEM) was 1240 ± 25 pmoles/mg protein and 1128 ± 38 pmoles/mg protein. The “rate of Na+-gradient-dependent BBMV uptake of Pi after washout of TPFA by dilution” value (Na-Pi cotransporter; versus control BBMV not exposed to TPFA) was “indistinguishable from control BBMV” and the “equilibrium uptake of L-[3H]-proline at 120 minutes” value [1] was 43+1 pmoles/mg protein.

— patent publication US4806532A, “Inhibition of epithelial phosphate transport” (Mayo Foundation for Medical Education and Research, priority 1985, dated 1989)
